Measured values from patent US8765765B2, “Metabolites of (thio) carbamoyl-cyclohexane derivatives” (Richter Gedeon Nyrt., priority 2007, dated 2014).

How the values were obtained:
[1] = molecular target: T1, rat recombinant D3 receptors (expressed in Sf9 cells) (Rattus norvegicus, UniProt P19020); experiment: D3 receptor binding, [3H]-spiperone; conditions: rat recombinant D3, [3H]-spiperone 0.85 nM; read-out: rD3 Ki
T1 construct: purchased Packard BioScience, BioSignal Packard Inc. 6110139; host or cells: Sf9 cells
Description: Binding assays were carried out on rat recombinant D3 receptors (expressed in Sf9 cells) according to the supplier instructions (Packard BioScience, BioSignal Packard Inc. Cat. No. 6110139, Technical Data Sheet) using [^3H]-spiperone (0.85 nM) as ligand and haloperidol (10 μM) for determination of non-specific binding.

[2] = molecular target: Alpha-1 receptor (rat brain cortical membrane preparation); experiment: Alpha-1 receptor binding, [3H]-prasosin; conditions: rat brain cortical membranes, [3H]-prasosin 0.5 nM
Description: 3. Alpha-1 Receptor Binding
Alpha-1 receptor binding study was performed according to the method described by Greengrass and Bremmer (European Journal of Pharmacology 55:323-326, 1979) on rat brain cortical membrane preparation using [^3H]-prasosin (0.5 nM) as ligand. The non-specific binding was determined in the presence of 10 μM phentolamine.

[3] = molecular target: T2, D2 receptor (rat brain striatal membrane preparation) (Rattus norvegicus, UniProt P61169); experiment: D2 receptor binding, [3H]-spiperone; conditions: rat brain striatal membranes, [3H]-spiperone 0.6 nM; read-out: rD2 Ki
T2 construct: on rat brain striatal membrane preparation; from tissue; host or cells: rat brain striatum membranes
Description: D2 receptor binding assay was carried out as described by Creese et al., European Journal of Pharmacology, 60, 55-66, 1979) on rat brain striatal membrane preparation using [^3H]-spiperone (0.6 nM) as ligand. The non-specific binding was determined in the presence of 1 μM (+)-butaclamol.

5-HT2C = 5-HT2C (Homo sapiens, UniProt P28335); conditions: background statement; cited from earlier work
[4] = tested on: adrenergic receptor sites; conditions: background statement; cited from earlier work
dopamine D3/D2 receptor = conditions: background statement; cited from earlier work
histamine H1 = histamine H1 (Homo sapiens, UniProt P35367); conditions: background statement; cited from earlier work
Sequence of histamine H1 (P35367 whole entry): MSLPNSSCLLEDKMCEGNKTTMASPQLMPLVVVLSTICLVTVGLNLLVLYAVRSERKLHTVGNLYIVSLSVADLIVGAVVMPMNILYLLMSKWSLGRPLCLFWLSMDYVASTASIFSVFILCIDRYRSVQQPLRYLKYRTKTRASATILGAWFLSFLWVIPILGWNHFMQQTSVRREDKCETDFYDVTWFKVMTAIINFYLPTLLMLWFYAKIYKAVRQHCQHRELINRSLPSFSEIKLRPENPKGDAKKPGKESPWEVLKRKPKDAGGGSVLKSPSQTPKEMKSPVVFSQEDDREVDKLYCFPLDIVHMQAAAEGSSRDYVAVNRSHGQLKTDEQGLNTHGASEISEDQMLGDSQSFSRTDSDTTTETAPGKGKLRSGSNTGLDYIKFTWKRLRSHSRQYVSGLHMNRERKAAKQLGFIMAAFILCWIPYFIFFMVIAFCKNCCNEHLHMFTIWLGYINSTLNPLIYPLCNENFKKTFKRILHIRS

T2 sequence (P61169 whole entry): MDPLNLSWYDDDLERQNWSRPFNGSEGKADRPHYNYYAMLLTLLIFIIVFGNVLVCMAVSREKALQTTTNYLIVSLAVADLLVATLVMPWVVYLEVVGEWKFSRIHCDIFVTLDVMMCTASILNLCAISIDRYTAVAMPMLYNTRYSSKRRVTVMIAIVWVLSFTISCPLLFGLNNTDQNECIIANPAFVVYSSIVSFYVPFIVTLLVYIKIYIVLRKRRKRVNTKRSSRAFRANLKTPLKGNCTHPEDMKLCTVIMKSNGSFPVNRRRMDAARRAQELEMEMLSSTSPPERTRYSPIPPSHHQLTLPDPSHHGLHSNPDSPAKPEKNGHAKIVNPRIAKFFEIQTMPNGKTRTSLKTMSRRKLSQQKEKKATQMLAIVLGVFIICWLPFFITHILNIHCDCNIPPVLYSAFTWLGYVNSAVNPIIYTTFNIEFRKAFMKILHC
T1 sequence (P19020 whole entry): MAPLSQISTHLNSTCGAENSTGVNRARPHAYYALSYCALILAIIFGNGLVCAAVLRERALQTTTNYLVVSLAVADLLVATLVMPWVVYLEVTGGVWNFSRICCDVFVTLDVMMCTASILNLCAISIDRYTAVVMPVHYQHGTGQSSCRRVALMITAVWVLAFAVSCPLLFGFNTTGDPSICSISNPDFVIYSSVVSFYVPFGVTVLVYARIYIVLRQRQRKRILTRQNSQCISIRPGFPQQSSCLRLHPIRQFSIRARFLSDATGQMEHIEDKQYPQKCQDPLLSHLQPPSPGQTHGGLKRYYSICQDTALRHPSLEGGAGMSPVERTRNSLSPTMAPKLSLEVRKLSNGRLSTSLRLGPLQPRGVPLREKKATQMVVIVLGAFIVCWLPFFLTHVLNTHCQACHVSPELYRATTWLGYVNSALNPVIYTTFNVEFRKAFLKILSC
Sequence of 5-HT2C (P28335 33-458, species assumed): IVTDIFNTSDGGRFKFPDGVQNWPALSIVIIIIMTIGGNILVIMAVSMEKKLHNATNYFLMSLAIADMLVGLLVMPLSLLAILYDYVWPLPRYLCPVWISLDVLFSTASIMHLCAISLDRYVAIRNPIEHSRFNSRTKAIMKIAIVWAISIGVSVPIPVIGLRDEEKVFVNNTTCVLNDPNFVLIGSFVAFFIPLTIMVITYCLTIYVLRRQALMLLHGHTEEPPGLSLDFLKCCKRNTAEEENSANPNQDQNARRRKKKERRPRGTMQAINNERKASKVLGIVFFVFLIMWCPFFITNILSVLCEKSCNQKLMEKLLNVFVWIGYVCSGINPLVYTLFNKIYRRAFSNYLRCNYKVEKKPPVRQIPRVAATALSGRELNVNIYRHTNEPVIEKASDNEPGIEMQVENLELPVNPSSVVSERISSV

| Ki [1] | Ki [2] | Ki [3] | Structure (SMILES) | potency at 5-HT2C receptor site (5-HT2C) | potency at adrenergic receptor sites [4] | D3 receptor antagonism relative to D2 receptor antagonism (dopamine D3/D2 receptor) | potency at histamine H1 receptor site (histamine H1) |
| --- | --- | --- | --- | --- | --- | --- | --- |
| 0.26 nM | > 1000 nM | 8.4 nM | NC(=O)N[C@H]1CC[C@H](CCN2CCN(c3ccc(O)c(Cl)c3Cl)CC2)CC1 [Compound A, Trans-1-{4-[2-[4-(2,3-dichloro-4-hydroxy-phenyl)-piperazin-1-yl]-ethyl]-cyclohexyl}-urea] | – | – | – | – |
| 0.37 nM | > 1000 nM | 80.5 nM | CN(C)C(=O)N[C@H]1CC[C@H](CCN2CCN(c3ccc(O)c(Cl)c3Cl)CC2)CC1 [Compound C, Trans-1-{4-[2-[4-(2,3-dichloro-4-hydroxy-phenyl)-piperazin-1-yl]-ethyl]-cyclohexyl}-3,3-dimethyl-urea] | – | – | – | – |
| > 10 nM | > 1000 nM | > 100 nM | CN(C)C(=O)N[C@H]1CC[C@H](CC[N+]2([O-])CCN(c3cccc(Cl)c3Cl)CC2)CC1 [Compound D, Trans-1-{4-[2-[4-(2,3-dichlorophenyl)-1-oxo-piperazin-1-yl]-ethyl]-cyclohexyl}-3,3-dimethyl-urea] | – | – | – | – |
| – | – | – | CN(C)C(=O)NC1CCC(CCN2CCN(c3cccc(Cl)c3Cl)CC2)CC1.Cl (stereo not drawn) [trans-4-{2-[4-(2,3-dichlorophenyl)-piperazin-1-yl]-ethyl}-N,N-dimethylcarbamoyl-cyclohexylamine hydrochloride] | low potency | low potency | about one order of magnitude greater | low potency |
| 0.24 nM | > 1000 nM | 2.49 nM | CNC(=O)N[C@H]1CC[C@H](CCN2CCN(c3ccc(O)c(Cl)c3Cl)CC2)CC1 [Compound B, Trans-1-{4-[2-[4-(2,3-dichloro-4-hydroxy-phenyl)-piperazin-1-yl]-ethyl]-cyclohexyl}-3-methyl-urea] | – | – | – | – |
